Measurements taken from patent publication US7566733B2, “Benzimidazole derivatives useful as selective androgen receptor modulators (sarms)” (priority 2004, dated 2009).

System: castrated male Sprague Dawley rats
Assay: Ventral Prostate and Seminal Vesicle Weight In Vivo Assay; note: key: active: the non weight adjusted prostate weight was ≦40 mg or the % Inhibition prostate weight, body weight adjusted was ≧40%@2 mg/day dosage; inactive: did not meet the specified criteria defined above
Conditions: inhibition of testosterone-enhanced prostate weight; immature castrated rats, once daily for five days, usually orally 40 mg/kg, with testosterone propionate 2 mg/kg s.c.
Method: Ventral Prostate and Seminal Vesicle Weight In Vivo Assay; note: key: active: the non weight adjusted prostate weight was ≦40 mg or the % Inhibition prostate weight, body weight adjusted was ≧40%@2 mg/day dosage; inactive: did not meet the specified criteria defined above
Immature (approximately 50 g) castrated male Sprague Dawley rats (Charles River) were treated once daily for five days with test compound (usually given orally at 40 mg/kg in a volume of 0.3 mL, in 30% cyclodextrin or 0.5% methylcellulose vehicle) and with testosterone propionate (given subcutaneously by injection at the nape of the neck at 2 mg/kg, in a volume of 0.1 mL in sesame oil). On the sixth day, the rats were euthanized by asphyxiation in carbon dioxide. Ventral prosatates and seminal vesicles were removed and their wet weights determined. Test compound activity was determined as the percent inhibition of testosterone-enhanced tissue weights, with a vehicle-treated control group set to zero percent and a testosterone alone-treated control group set to 100%.
Representative compounds of the present invention were tested according to the procedure described, with results as listed in Table 7 below. A test compound is listed as “active” if the non weight adjusted prostate weight was ≦40 mg or the % Inhibition prostate weight, body weight adjusted was ≧40%@2 mg/day dosage. ID50's, if determined, of ≦15 mg/day also indicated an “active” compound.

| SMILES | Activity |
| --- | --- |
| OC(c1nc2cc(Cl)c(Cl)cc2[nH]1)C(F)(F)F (racemic) [Compound 59, 1-(5,6-DiChloro-1H-benzoimidazol-2-yl-)2,2,2-trifluoro-ethanol] | active |
| ON=C(c1nc2cc(Cl)c(Cl)cc2[nH]1)C(F)(F)F (racemic) [Compound 141, 1-(5,6-Dichloro-1H-benzoimidazol-2-yl)-2,2,2-trifluoro-ethanone Oxime] | active |
| CC(O)(Cc1cccc(F)c1)c1nc2cc(Cl)c(Cl)cc2[nH]1 (stereo not shown) [Compound 3] | inactive |
| CC(O)(CO)c1nc2cc(Cl)c(Cl)cc2[nH]1 (stereo not shown) [Compound 4] | active |
| Cn1c(C(C)(O)CC#N)nc2cc(Cl)c(Cl)cc21 (stereo not shown) [Compound 8] | active |
| Cn1c(C(C)(O)C(F)(F)F)nc2cc(Cl)c(Cl)cc21 (stereo not shown) [Compound 9] | active |
| CCOCC(C)(O)c1nc2cc(Cl)c(Cl)cc2n1C (stereo not shown) [Compound 10] | inactive |
| CCn1c(C(C)(O)C(F)(F)F)nc2cc(Cl)c(Cl)cc21 (stereo not shown) [Compound 13] | active |
| CCCn1c(C(C)(O)C(F)(F)F)nc2cc(Cl)c(Cl)cc21 (stereo not shown) [Compound 14] | active |
| CCCCn1c(C(C)(O)C(F)(F)F)nc2cc(Cl)c(Cl)cc21 (stereo not shown) [Compound 15] | active |
| CCn1c(C(C)(O)CC#N)nc2cc(Cl)c(Cl)cc21 (stereo not shown) [Compound 16] | active |
| CCn1c(C(C)(O)COC)nc2cc(Cl)c(Cl)cc21 (stereo not shown) [Compound 17] | inactive |
| Cn1c(C(C)(O)CCl)nc2cc(Cl)c(Cl)cc21 (stereo not shown) [Compound 18, 1-Chloro-2-(5,6-dichloro-1-methyl-1H-benzoimidazol-2-yl)-propan-2-ol] | active |
| CC(O)(c1nc2cc(Cl)c(Cl)cc2[nH]1)C(F)(F)F (stereo not shown) [Compound 20] | inactive |
| CCSCC(C)(O)c1nc2cc(Cl)c(Cl)cc2n1C (stereo not shown) [Compound 25, 2-(5,6-Dichloro-1-methyl-1H-benzoimidazol-2-yl)-1-ethylsulfanyl-propan-2-ol] | active |
| CC(O)(Cc1nc2cc(Cl)c(Cl)cc2[nH]1)C(F)(F)F (stereo not shown) [Compound 27, 3-(5,6-Dichloro-2-1H-benzoimidazol-2-yl)-1,1,1-trifluoro-2-methyl-propan-2-ol] | active |
| COC(C)(CC#N)c1nc2cc(Cl)c(Cl)cc2n1C (stereo not shown) [Compound 28] | active |
| CCSCC(C)(O)c1nc2cc(Cl)c(Cl)cc2n1CC (stereo not shown) [Compound 31, 2-(5,6-Dichloro-1-ethyl-1H-benzoimidazol-2-yl)-1-ethylsulfanyl-propan-2-ol] | active |
| Cn1c(CC(C)(O)C(F)(F)F)nc2cc(Cl)c(Cl)cc21 (stereo not shown) [Compound 33] | active |
| CCn1c(CC(C)(O)C(F)(F)F)nc2cc(Cl)c(Cl)cc21 (stereo not shown) [Compound 37] | active |
| FC(F)(F)Cc1nc2cc(Cl)c(Cl)cc2[nH]1 [Compound 41, 5,6-Dichloro-2-(2,2,2-trifluoro-ethyl)-1H-benzoimidazole] | active |
| CCn1c(C(C)(O)CSCC(F)(F)F)nc2cc(Cl)c(Cl)cc21 (stereo not shown) [Compound 44, 2-(5,6-Dichloro-1-ethyl-1H-benzoimidazol-2-yl)-1-(2,2,2-trifluoro-ethylsulfanyl)-propan-2-ol] | inactive |
| Cn1c(C(C)(O)CS(=O)(=O)Cc2ccccc2)nc2cc(Cl)c(Cl)cc21 (stereo not shown) [Compound 45, 2-(5,6-Dichloro-1-methyl-1H-benzoimidazol-2-yl)-1-phenylmethanesulfonyl-propan-2-ol] | inactive |
| CCn1c(C(C)(O)CS(=O)(=O)CC)nc2cc(Cl)c(Cl)cc21 (stereo not shown) [Compound 48, 2-(5,6-Dichloro-1-ethyl-1H-benzoimidazol-2-yl)-1-ethanesulfonyl-propan-2-ol] | active |
| CCn1c(C(C)(O)CS(=O)(=O)CC(F)(F)F)nc2cc(Cl)c(Cl)cc21 (stereo not shown) [Compound 49, 2-(5,6-Dichloro-1-ethyl-1H-benzoimidazol-2-yl)-1-(2,2,2-trifluoro-ethanesulfonyl)-propan-2-ol] | inactive |

| SMILES | Activity |
| --- | --- |
| CC(=O)Nc1ccc(SCC(C)(O)c2nc3cc(Cl)c(Cl)cc3n2C)cc1 (stereo not shown) [Compound 56, N-{4-[2-(5,6-Dichloro-1-methyl-1H-benzoimidazol-2-yl)-2-hydroxy-propylsulfanyl]-phenyl}-acetamide] | inactive |
| COCn1c(CC(F)(F)F)nc2cc(Cl)c(Cl)cc21 [Compound 57, 5,6-Dichloro-1-methoxymethyl-2-(2,2,2-trifluoro-ethyl)-1H-benzoimidazole] | active |
| CSCn1c(CC(F)(F)F)nc2cc(Cl)c(Cl)cc21 [Compound 58, 5,6-Dichloro-1-methylsulfanylmethyl-2-(2,2,2-trifluoro-ethyl)-1H-benzoimidazole] | active |
| COC(c1nc2cc(Cl)c(Cl)cc2n1C)C(F)(F)F (stereo not shown) [Compound 61] | active |
| CCOC(c1nc2cc(Cl)c(Cl)cc2n1CC)C(F)(F)F (stereo not shown) [Compound 62] | active |
| FC(F)(F)Cc1nc2cc(Cl)c(C(F)(F)F)cc2[nH]1 [Compound 68] | active |
| N#Cc1cc2nc(CC(F)(F)F)[nH]c2cc1C(F)(F)F [Compound 69] | inactive |
| Cn1c(CC(F)(F)F)nc2cc(Cl)c(Cl)cc21 [Compound 71, 5,6-Dichloro-1-methyl-2-(2,2,2-trifluoro-ethyl)-1H-benzoimidazole] | active |
| FC(F)(F)Cc1nc2cc(Cl)c(Cl)cc2n1COc1ccc(Cl)cc1 [Compound 72] | inactive |
| CS(=O)(=O)Cn1c(CC(F)(F)F)nc2cc(Cl)c(Cl)cc21 [Compound 73, 5,6-Dichloro-1-methanesulfonylmethyl-2-(2,2,2-trifluoro-ethyl)-1H-benzoimidazole] | active |
| O=C(Cn1c(CC(F)(F)F)nc2cc(Cl)c(Cl)cc21)c1ccccc1 [Compound 74, 2-[5,6-Dichloro-2-(2,2,2-trifluoro-ethyl)-benzoimidazol-1-yl]-1-phenyl-ethanone] | inactive |
| O=C(Cn1c(CC(F)(F)F)nc2cc(Cl)c(Cl)cc21)c1ccc(F)cc1 [Compound 75, 2-[5,6-Dichloro-2-(2,2,2-trifluoro-ethyl)-benzoimidazol-1-yl]-1-(4-fluoro-phenyl)-ethanone] | active |
| O=C(Cn1c(CC(F)(F)F)nc2cc(Cl)c(Cl)cc21)c1ccc([N+](=O)[O-])cc1 [Compound 76, 2-[5,6-Dichloro-2-(2,2,2-trifluoro-ethyl)-benzoimidazol-1-yl]-1-(4-nitro-phenyl)-ethanone] | active |
| COc1ccc(C(=O)Cn2c(CC(F)(F)F)nc3cc(Cl)c(Cl)cc32)c(OC)c1 [Compound 77, 2-[5,6-Dichloro-2-(2,2,2-trifluoro-ethyl)-benzoimidazol-1-yl]-1-(2,4-dimethoxy-Phenyl)-ethanone] | inactive |
| O=C(Cn1c(CC(F)(F)F)nc2cc(Cl)c(Cl)cc21)c1ccc(Br)cc1 [Compound 79, 1-(4-Bromo-phenyl)-2-[5,6-dichloro-2-(2,2,2-trifluoro-ethyl)-benzoimidazol-1-yl]-ethanone] | inactive |
| CCC(=O)Cn1c(CC(F)(F)F)nc2cc(Cl)c(Cl)cc21 [Compound 80, 1-[5,6-Dichloro-2-(2,2,2-trifluoro-ethyl)-benzoimidazol-1-yl]-butan-2-one] | active |
| CCOC(=O)Cn1c(CC(F)(F)F)nc2cc(Cl)c(Cl)cc21 [Compound 81, [5,6-Dichloro-2-(2,2,2-trifluoro-ethyl)-benzoimidazol-1-yl]-acetic Acid Ethyl Ester] | inactive |
| O[C@H](c1nc2cc(Cl)c(Cl)cc2[nH]1)C(F)(F)F [Compound 82, (−)-1-(5,6-DiChloro-1H-benzoimidazol-2-yl-)2,2,2-trifluoro-ethanol] | active |
| O[C@@H](c1nc2cc(Cl)c(Cl)cc2[nH]1)C(F)(F)F [Compound 83, (+)-1-(5,6-DiChloro-1H-benzoimidazol-2-yl-)2,2,2-trifluoro-ethanol] | active |
| O=C(Cn1c(CC(F)(F)F)nc2cc(Cl)c(Cl)cc21)c1cc2ccccc2o1 [Compound 84, 1-Benzofuran-2-yl-2-[5,6-dichloro-2-(2,2,2-trifluoro-ethyl)-benzoimidazol-1-yl]-ethanone] | inactive |
| O=C(Cn1c(CC(F)(F)F)nc2cc(Cl)c(Cl)cc21)c1ccc(Cl)cc1 [Compound 85, 1-(4-Chloro-phenyl)-2-[5,6-dichloro-2-(2,2,2-trifluoro-ethyl)-benzoimidazol-1-yl]-ethanone] | inactive |
| COc1cccc(C(=O)Cn2c(CC(F)(F)F)nc3cc(Cl)c(Cl)cc32)c1 [Compound 86, 2-[5,6-Dichloro-2-(2,2,2-trifluoro-ethyl)-benzoimidazol-1-yl]-1-(3-methoxy-phenyl)-ethanone] | inactive |
| O=C(Cn1c(CC(F)(F)F)nc2cc(Cl)c(Cl)cc21)c1cccnc1 [Compound 87, 2-[5,6-Dichloro-2-(2,2,2-trifluoro-ethyl)-benzoimidazol-1-yl]-1-pyridin-3-yl-ethanone] | inactive |
| O=C(Cn1c(CC(F)(F)F)nc2cc(Cl)c(Cl)cc21)c1ccc(-c2ccccn2)s1 [Compound 88, 2-[5,6-Dichloro-2-(2,2,2-trifluoro-ethyl)-benzoimidazol-1-yl]-1-(5-pyridin-2-yl-thiophen-2-yl)-ethanone] | inactive |
